Data taken from ChEMBL document CHEMBL1148482, “Novel benzophenones as non-nucleoside reverse transcriptase inhibitors of HIV-1” (J Med Chem, 2004).

Legend:
[1] = tested on: Human immunodeficiency virus 1; experiment: Antiviral activity against K101E strain of HIV-1; assay type: functional, organism-based
MT4 [2] = experiment: Antiviral activity against MT-4 cells infected with Nev-R strain of HIV-1; conditions: Homo sapiens
[3] = tested on: Human immunodeficiency virus 1; experiment: Antiviral activity against wild-type HIV-1; assay type: functional, organism-based
[4] = tested on: Human immunodeficiency virus 1; experiment: Antiviral activity against G190A strain of HIV-1; assay type: functional, organism-based
[5] = tested on: Human immunodeficiency virus 1; experiment: Antiviral activity against K103N/V108I strain of HIV-1; assay type: functional, organism-based
[6] = tested on: Human immunodeficiency virus 1; experiment: Antiviral activity against K103N/Y181C strain of HIV-1; assay type: functional, organism-based
[7] = tested on: Human immunodeficiency virus 1; experiment: Antiviral activity against V108I strain of HIV-1; assay type: functional, organism-based
[8] = tested on: Human immunodeficiency virus 1; experiment: Antiviral activity against Y181C strain of HIV-1; assay type: functional, organism-based
[9] = tested on: Human immunodeficiency virus 1; experiment: Antiviral activity against K103N/P225H strain of HIV-1; assay type: functional, organism-based
[10] = tested on: Human immunodeficiency virus 1; experiment: Antiviral activity against K103N strain of HIV-1; assay type: functional, organism-based
[11] = tested on: Human immunodeficiency virus 1; experiment: Antiviral activity against K103N/L100I strain of HIV-1; assay type: functional, organism-based
[12] = tested on: Human immunodeficiency virus 1; experiment: Antiviral activity against V106A strain of HIV-1; assay type: functional, organism-based
[13] = tested on: Human immunodeficiency virus 1; experiment: Antiviral activity against V106I/Y181C strain of HIV-1; assay type: functional, organism-based
[14] = tested on: Human immunodeficiency virus 1; experiment: Antiviral activity against L100I strain of HIV-1; assay type: functional, organism-based
[15] = tested on: Human immunodeficiency virus 1; experiment: Antiviral activity against V106A/Y181C strain of HIV-1; assay type: functional, organism-based
[16] = tested on: Human immunodeficiency virus 1; experiment: Antiviral activity against P225H strain of HIV-1; assay type: functional, organism-based
MT4 [17] = experiment: Antiviral activity against MT-4 cells infected with wild-type HIV-1; conditions: Homo sapiens
[18] = tested on: Human immunodeficiency virus 1; experiment: Antiviral activity against P236L strain of HIV-1; assay type: functional, organism-based
[19] = tested on: Human immunodeficiency virus 1; experiment: Antiviral activity against V106I strain of HIV-1; assay type: functional, organism-based
[20] = tested on: Human immunodeficiency virus 1; experiment: Antiviral activity against Y188C strain of HIV-1; assay type: functional, organism-based
[21] = tested on: Human immunodeficiency virus 1; experiment: Antiviral activity against K103N/G190A strain of HIV-1; assay type: functional, organism-based
[22] = tested on: Human immunodeficiency virus 1; experiment: Antiviral activity against V108I/Y181C strain of HIV-1; assay type: functional, organism-based
[23] = tested on: Human immunodeficiency virus 1; experiment: Antiviral activity against E138K strain of HIV-1; assay type: functional, organism-based

| SMILES | IC50 [1] | IC50 (MT4 [2]) | IC50 [3] | IC50 [4] | IC50 [5] | IC50 [6] | IC50 [7] | IC50 [8] | IC50 [9] | IC50 [10] | IC50 [11] | IC50 [12] | IC50 [13] | IC50 [14] | IC50 [15] | IC50 [16] | IC50 (MT4 [17]) | IC50 [18] | IC50 [20] | IC50 [21] | other results |
| --- | --- | --- | --- | --- | --- | --- | --- | --- | --- | --- | --- | --- | --- | --- | --- | --- | --- | --- | --- | --- | --- |
| Cc1ccnc2c1NC(=O)c1cccnc1N2C1CC1 [NEVIRAPINE] | 520 nM | 17200 nM | 100 nM | > 10000 nM | 15000 nM | > 10000 nM | 290 nM | 9400 nM | 9800 nM | 6600 nM | 8000 nM | 9000 nM | > 10000 nM | 500 nM | > 10000 nM | 1200 nM | 96 nM | 56 nM | 2300 nM | > 10000 nM | IC50 [19]: 150 nM; IC50 [22]: > 10000 nM; IC50 [23]: 65 nM |
| O=C1Nc2ccc(Cl)cc2[C@@](C#CC2CC2)(C(F)(F)F)O1 [EFAVIRENZ] | – | 2.7 nM | – | – | – | – | – | – | – | – | – | – | – | – | – | – | 3.5 nM | – | – | – | – |
| CC(C)Nc1cccnc1N1CCN(C(=O)c2cc3cc(NS(C)(=O)=O)ccc3[nH]2)CC1 [DELAVIRDINE] | 29 nM | 2400 nM | 200 nM | 35 nM | 3500 nM | > 8400 nM | 78 nM | 2300 nM | 2300 nM | 2700 nM | > 8400 nM | 900 nM | 4500 nM | 920 nM | > 10000 nM | 11 nM | 160 nM | 1600 nM | 170 nM | 2700 nM | IC50 ([19]; read-out: IC50): 55 nM; IC50 [22]: > 10000 nM; IC50 [23]: 10 nM |
